The values below come from patent US10017463B2, “Inhibitors of deubiquitinating proteases” (Brandeis University, priority 2014, dated 2018).

The target of assay [1] is T1, recombinant human 20S proteasome (Homo sapiens, UniProt P28074).
T1 construct: purchased Boston Biochem
Briefly: 20S proteasome assay (Suc-Leu-Leu-Val-Tyr-AMC). The conditions noted are these: 50 μM for the TU compounds (FIG. 6D). Type of assay: biochemical. Here is the method: To recombinant human 20S proteasome ([…]) in 50 mM potassium phosphate pH 7.6, 50 mM NaCl, 1 mM DTT was added the compound or DMSO. This mixture was incubated at 25° C. for 30 min after which time substrate (Suc-Leu-Leu-Val-Tyr-AMC, 100 μM or 17 μM) was added and release of AMC was measured as a function of time using a plate reader for 30 min. The steady state rates were calculated and normalized to the DMSO rate. The concentration of inhibitor required to inhibit the enzyme by 50% was calculated using prism.

Assay [2] concerns the target T2, USP7 catalytic domain (USP7CD) (Homo sapiens, UniProt Q93009).
T2 construct: USP7 catalytic domain (USP7CD)
Briefly: USP7 catalytic domain, Cy5-Ub-VME activity profiling. Type of assay: biochemical. Particulars: at 12.5 μM. Here is the method:
Panel A is an image showing that purified recombinant USP9x (7 nM) was treated with the stated compound at 50 μM for 19 min prior to addition of Cy5-Ub-VME for 5 min, then the mixture was resolved by S.D.S-PAGE and analyzed on a typhoon imager. Panel B is an image of an immunoblot showing purified recombinant USP9x (7 nM) and USP7CD (20 nM) were treated with the stated compound at the stated concentration for 19 min prior to addition of Cy5-Ub-VME for 5 min then the mixture was resolved by S.D.S-PAGE and analyzed on a Typhoon imager.
In addition, the amount of free inhibitor is unknown and thus the true kon could be much higher.

For assay [3], the system named is DUBs other than USP9x, most notably UCHL5. Briefly: HA-Ubiquitin-Vinylsulfone activity profiling, other DUBs. Type of assay: biochemical. The conditions noted are these: for inhibition of other DUBs other than USP9x: at 85 μM; for inhibition of other DUBs: below 25 μM. On the procedure: Lysate labeling assay on untransfected cells (1.5 mg/mL lysate lysed using a Dounce homogenizer, 10 strokes, in 75 mM potassium phosphate pH 7.6, 150 mM NaCl, 0.75 mM BME) was run with the stated concentration of inhibitor (or 1% DMSO control) for 30 min. After this time HA-Ub-VS (1.5 μM) was added and incubated for 15 min. After this time reaction mixture (15 μL) was removed and quenched in 2× (final concentration) reducing Laemeli buffer. The reaction mixtures were heated to 37° C. for 10 min prior to analysis by western blot for HA. […] EC50s calculated by this method were in agreement with those found in the HA-blot.

A further assay has as its system BaF3/p210 cells. Briefly: Proliferation assay (Alamar Blue), BaF3/p210. Type of assay: cell-based, murine. Particulars: for EC50: Mus musculus, BaF3, fresh media with compound added after 24 h, 24 h further growth, read-out: EC50 (viable cells). An excerpt:
This cell line consists of engineered murine leukemia cells that ectopically express Bcr-Abl. Parent BaF3 cells require exogenous interleukin 3 (IL3) because IL3 stimulates expression of MCL1, which is required for survival. However, BaF3/p210 cells require no exogenous interleukins but need Bcr-Abl for survival.

The next assay deals with G76VUb-GFP in COS1 cells. The assay can be described thus: UbG76V-GFP proteasome assay in COS1 cells. Type of assay: cell-based. Here is the method:
COS1 cells at approx. 75% confluence in a 48 well plate were transiently transfected with a plasmid encoding G76VUb-GFP using Mirus 2020 reagent. After this time media with either compound in DMSO or 1% DMSO was added to the cells and the cells were incubated for 8 h. After this time, cells were trypsinized, diluted with 1% FBS in PBS (FACS buffer) then centrifuged at 700 g. After this time cells on ice were treated with FACS buffer containing propidium iodide (0.05 mg/mL). The GFP (indicating proteasome activity) and red fluorescence (dye exclusion showing acute toxicity) were subsequently measured by FACS.

The next assay deals with Bcr-Abl. Briefly: Bcr-Abl immunoblot in K562 cells. Particulars: for decrease in Bcr-Abl: 30 μM, 4 h. Type of assay: cell-based. Here is the method: After this time cells were lysed and sonicated in SDS. Whole cell lysates were analyzed for Bcr-Abl and tubulin in triplicate. Panel B is a bar graph showing the quantitation of the blots in Panel A. Panel C is a plot showing differing concentrations of TU50 were added to K562 cells and after 4 h the amount of Bcr-Abl was measured in whole cell lysates.

A further assay deals with DUBs. The assay can be described thus: Cy5-Ub-VME activity profiling of treated BaF3/p210 cells. Type of assay: cell-based, murine. Particulars: 50 μM, 4 h. Here is the method: FIG. 9 has two panels (A and B) depicting data showing that TUs inhibit DUBs in cells. BaF3/p210 cells were incubated with the stated concentration of compound for 4 h. After this time cells were lysed using beads, lysates were normalized, then exposed to Cy5-Ub-VME for 5 min. After quenching, lysates were resolved by SDS-PAGE, analyzed on typhoon, then stained by Coomassie. Panel A is an image of the SDS-PAGE gel visualized via Typhoon imager. Panel B is an image of the SDS PAGE gel stained with Coomassie.
Panel A is the chemical structure of TU71. Panel B is an image of an immunoblot showing a K562 cell was treated with TU71 for 15 min at which time HAUb-VS was added. After an additional 15 min, aliquots were quenched in reducing loading buffer and analyzed by SDS-PAGE and HA blot. […] BaF3/p21 0 cells were treated with TU71 for 2.5 h (Panel C) or 4 h (Panel D). Cells were harvested, lysed and incubated (0.7 mg/mL protein) with 250 nM Cy5-UbVME for 5 min at 37° C. […] Panel E is an image of an immunoblot showing BaF3/p210 cells were incubated with TU71 for 4 h. The cells were harvested, lysed, analyzed by SDS-PAGE and immunoblotted as indicated. “cPARP” indicates the caspase cleavage of product of PARP and is indicative of apoptosis. Panel F is a bar graph showing data representative of mean±range of two independent experiments, one performed in duplicate of the blot depicted in Panel E.
The increased promiscuity of the inhibitors when the experiment is carried out in cells likely stems from the increased assay time (4 h vs 20 min) coupled with the slow on rates of the inhibitors and their targets.

A further assay concerns 3T3. Briefly: Proliferation assay, 3T3. Particulars: Mus musculus, NIH3T3, 72 h, read-out: EC50 growth inhibition 3T3.

T2 sequence (Q93009 214-521 limits assumed, species assumed): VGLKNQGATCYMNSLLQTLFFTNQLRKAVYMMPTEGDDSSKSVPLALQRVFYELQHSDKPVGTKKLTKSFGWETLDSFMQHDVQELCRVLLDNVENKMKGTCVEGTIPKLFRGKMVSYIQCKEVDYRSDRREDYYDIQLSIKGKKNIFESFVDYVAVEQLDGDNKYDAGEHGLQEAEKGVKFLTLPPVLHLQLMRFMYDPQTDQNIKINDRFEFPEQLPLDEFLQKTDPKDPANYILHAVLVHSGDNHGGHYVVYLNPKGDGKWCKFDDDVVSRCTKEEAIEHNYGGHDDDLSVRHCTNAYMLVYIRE
Description for 3T3: Proliferation assays for adherent cells were conducted by plating cells at 5%-10% confluence in 96 well plates together with compound or 0.1% DMSO. Cells were allowed to grow for 48 h and then Alamar Blue® was added and number of cells was measured by fluorescence on a microplate reader.

Usually EC50 stands for the concentration giving half of the maximal effect. `CC(C)(C)OC(=O)NCCc1ccc(N=C=S)cc1` [TU46]: the “inhibition of pure 20S proteasome” value in assay [1] is reported as “did not inhibit”. Besides, in assay [2], the “inhibition of USP7CD” value is reported as “little inhibition”. Besides, in assay [3], the “inhibition of other DUBs other than USP9x” value is “weak inhibition” and the “inhibition of other DUBs” value was “little inhibition”. In the assay on BaF3/p210 cells, the “growth inhibition of BaF3/p210 cells” value is reported as “good growth inhibition”, the “selectivity for BaF3/p210 over NIH3T3 cells” value is given as “over a ten-fold selectivity”, the “selectivity for BaF3/p210 over other cancer lines” value is given as “at least a five-fold selectivity” and the EC50 stood at 11 µM. Moreover, the “inhibition of the proteasome in G76VUb-GFP assay” value (“inhibition of the proteasome” for short) in the assay on G76VUb-GFP in COS1 cells (COS1, 8 h) was “did not inhibit”. For the same molecule, the GFP signal entry in the assay on G76VUb-GFP in COS1 cells (COS1, at 50 μM) is reported as “slight increase in GFP signal”. The “decrease in Bcr-Abl” value in the assay with Bcr-Abl is given as “four-fold decrease”. Besides, the “Cy5-Ub-VME labelled bands after treatment of cells” value (“Cy5-Ub-VME labelled bands” for short) in the assay with DUBs is listed as “decrease in a number of bands in addition to the band corresponding to USP9x”. In the assay with 3T3, the EC50 is over 110 µM.

For `CC(C)(C)OC(=O)NCc1cccc(N=C=S)c1` [TU50], the “inhibition of pure 20S proteasome” value in assay [1] is recorded as “did not inhibit”. The “inhibition of USP7CD” value in assay [2] is “little inhibition”. Moreover, in assay [3], the “inhibition of other DUBs other than USP9x” value is “weak inhibition” and the “inhibition of other DUBs” value is “little inhibition”. In the assay with BaF3/p210 cells, the “growth inhibition of BaF3/p210 cells” value is on record as “good growth inhibition”, the “selectivity for BaF3/p210 over NIH3T3 cells” value is listed as “over a ten-fold selectivity”, the “selectivity for BaF3/p210 over other cancer lines” value is on record as “at least a five-fold selectivity” and the EC50 worked out at 16 µM. Further, in the assay on G76VUb-GFP in COS1 cells (COS1, 8 h), the GFP signal result was “decreased the GFP signal” and the “inhibition of the proteasome” value was “did not inhibit”. The “decrease in Bcr-Abl” value in the assay on Bcr-Abl is listed as “four-fold decrease”. In addition, in the assay with Bcr-Abl (K562, 4 h, read-out: EC50 for Bcr-Abl degradation), the EC50 stood at 12 µM. For the same molecule, the “Cy5-Ub-VME labelled bands” value in the assay on DUBs is given as “decrease in a number of bands in addition to the band corresponding to USP9x”. Also, the EC50 with 3T3 worked out at 80 ± 10 µM.

For `O=C(NCc1ccc(N=C=S)cc1)OCc1ccccc1` [TU49], the “inhibition of pure 20S proteasome” value in assay [1] was “did not inhibit”. Moreover, in assay [2], the “inhibition of USP7CD” value is on record as “little inhibition”. For the same molecule, in assay [3], the “inhibition of other DUBs other than USP9x” value is reported as “weak inhibition” and the “inhibition of other DUBs” value was “little inhibition”. Further, in the assay with BaF3/p210 cells, the “growth inhibition of BaF3/p210 cells” value is “good growth inhibition”. Besides, in the assay with G76VUb-GFP in COS1 cells (COS1, 8 h), the GFP signal entry is given as “decreased the GFP signal” and the “inhibition of the proteasome” value was “did not inhibit”. In addition, the “decrease in Bcr-Abl” value with Bcr-Abl is “four-fold decrease”. Also, the “Cy5-Ub-VME labelled bands” value with DUBs is “decrease in a number of bands in addition to the band corresponding to USP9x”. The EC50 in the assay with 3T3 was over 110 µM.
